US6383479B1, “Neutrophil-activating factor” (Novartis AG, priority 1987, dated 2002)

Assays:
[1] = test system: human neutrophils; assay: stimulus-dependent exocytosis of granule contents by human neutrophils; format: cell-based
Experimental: Neutrophils (5×10^6/ml) suspended in PBS/BSA are preincubated with or without cytochalasin B (5 μg/ml) at 37° for 5 min.
Granule release is then initiated by adding the stimulus, e.g. NAF or a standard stimulus. The reaction is stopped 15 min later by rapid cooling in ice followed by centrifugation to sediment the cells. Vitamin B12-binding protein, β-glucuronidase and lactate dehydrogenase are determined in the cell-free media and cell pellets, and the release of these constituents is calculated in percent of the total cellular content (B. Dewalt and M. Baggiolini, Methods Enzymol. 132 [1986] 267).
Natural and recombinant NAF are tested in parallel on human neutrophils. They elicit virtually identical changes in cytosolic free Ca^2+, yielding a maximum rise at a concentration as low as 3 nM (FIG. 15). A nearly identical concentration-dependent respiratory burst response is obtained with both preparations in the range of 1 to 30 nM as assessed by chemiluminescence. The equivalence between natural and recombinant NAF is also reflected by chemotaxis and exocytosis measurements. Chemotactic migration is observed between 0.1 and 10 nM with a maximum effect at 1 nM. (Table 6). With either peptide a significant release of vitamin B12-binding protein from the specific granules at 0.3 nM and of beta-glucuronidase from the azurophil granules at 1 nM is observed.

[2] = test system: human neutrophils; assay: hydrogen peroxide formation by chemiluminescence in human neutrophils; format: cell-based
Experimental: b) H2O2-dependent chemiluminescence: the progress curves following stimulation with partially purified NAF and approximately equiactive concentrations of C5a and fMLP are shown on the left. The initial phase of the response is detailed on the right. The stimulants are added in 50 μl of PBS-BSA.
Lower graphs: respiratory burst induced by natural (left) and recombinant (right) NAF. Neutrophils (10^6 cells/ml) are stimulated with 3, 10 and 30 nM NAF at time zero and hydrogen peroxide production is measured by chemiluminescence (M. P. Wymann et al., Anal. Biochem. 165 [1987] 371-378).
The properties of NAF, fMLP and C5a as stimuli of the respiratory burst are compared by assessing the production of superoxide or hydrogen peroxide by the stimulated cells. Superoxide formation is determined as described in Example 13. Hydrogen peroxide formation is determined by chemiluminescence (M. P. Wymann et al., Anal. Biochem. 165 [1987] 371-378). The assay mixture consisting of PBS-BSA containing 0.1 M sodium azide, 0.01 mM luminol, 9 U/ml horseradish peroxidase and 10^6 neutrophils is preincubated for 10 min at 37° and the reaction is started by adding the stimulus via a microsyringe.

[3] = test system: New Zealand albino rabbits; assay: neutrophil accumulation and plasma leakage in rabbit skin after intradermal injection; format: in vivo
From the text: Inflammatory responses are examined in the skin of conscious 2.0 to 2.5 kg New Zealand albino rabbits. Erythrocytes in blood from donor rabbits are sedimented with hydroxyethyl cellulose (Polysciences, Warrington, Pa.) and neutrophils in the resultant leucocyte-rich plasma are purified (>94% neutrophils) by density gradient centrifugation on Percoll (Pharmacia, Uppsala, Sweden). Cells are resuspended in Ca^2+ and Mg^2+—free Tyrode's solution containing 10% platelet poor plasma to a concentration of 10^6 leukocytes/ml and labeled for 15 min at room temperature with 40 μCi ^111indium-oxine (Amersham) per 10^6 cells. The labeled cells are washed by centrifugation through 10% platelet-poor plasma and approximately 10^6 cells per recipient are mixed with 10 μCi ^125iodine-labeled human serum albumin (Amersham) and injected intravenously through the lateral ear vein of rabbits with inflammatory lesions under study. Intradermal injections of inflammatory agents are then made and animals are killed 2 h later in studies with actinomycin D and polymyxin B, and 4 h later in dose-response experiments. Midway through the period that radiolabeled cells are in circulation, a blood sample is collected and the specific activities of neutrophils and plasma in blood are determined. Radioactivity in inflammatory lesions at the end of each experiment are determined in a multichannel gamma counter, the activity in control skin sites is subtracted and the absolute number of neutrophils and volume of plasma accumulating in inflammatory lesions are calculated from the specific activities. Neutrophil numbers in inflammatory lesions are standardised between animals by expressing the results as cell number per 10^6 neutrophils circulating per ml peripheral blood, according to the method of Cybulsky et al., Am. J. Pathol. 124 [1986] 367.
Recombinant NAF obtained as described under Example 19 is dissolved at 400 μg/ml in minimal essential medium (50 mM) plus 0.45 M NaCl (pH 6.5). Endotoxin (E. coli serotype 055:B5, Sigma, St. Louis, Mo.) is dissolved in pyrogen-free normal saline. fMLP is dissolved in dimethyl sulphoxide at 10^−2 M and diluted to working concentrations in PFS. Polymyxin B and actinomycin D are dissolved in 1 ml ethanol and diluted 20 fold by mixing with NAF, endotoxin or fMLP in PFS. In studies on inhibition of inflammatory responses 40 μg polymyxin B and 10^−7 moles actinomycin D are injected per skin site with […] endotoxin. In all experiments 0.2 ml of inflammatory agents are injected intradermally per site through 26 gauge needles, with 5 replicates of each treatment in each animal.

[4] = test system: human neutrophils; assay: superoxide formation (SOD-sensitive cytochrome c reduction) by human neutrophils; format: cell-based; conditions: per 10^6 cells
Experimental: a) Superoxide production: neutrophils (3×10^6 /ml) are preincubated at 37° with or without 1 μm PAF for 2 minutes and then stimulated with increasing amounts of NAF. Recordings of cytochrome c reduction following NAF addition are shown.
Superoxide formation is measured at 37° as the SOD sensitive reduction of ferricytochrome c (M. Markert et al., Methods Enzymol. 132 [1984] 267). The assay mixture (800 μl) consists of 0.75×10^6 cells/ml PBS-BSA containing 85 μM cytochrome c. Absorbance changes are recorded in a Hewlett-Packard 8451A diode array spectrophotometer equipped with a thermostated seven-place cuvette exchanger. Table 4 documents the capacity of NAF to elicit the respiratory burst in human neutrophils: […]

[5] = NAF 50 μl, with CB (cytochalasin B 5 μg/ml)
[6] = NAF 100 μl, with CB (cytochalasin B 5 μg/ml)
[7] = recombinant NAF intradermal, 10^−11 to 10^−9 moles per site, 4 h

neutrophil-activating factor [NAF]
Percent release of Vit. B12-binding protein [1, 5]: 25.6 ± 3.4%
Percent release of lactate dehydrogenase [1, 5]: 6.7 ± 1.6%
Percent release of β-glucuronidase [1, 5]: 7.9 ± 2.0%
Percent release of Vit. B12-binding protein ([1]; NAF 50 μl, without CB): 12.9 ± 1.6%
Percent release of lactate dehydrogenase ([1]; NAF 50 μl, without CB): 5.8 ± 0.7%
Percent release of β-glucuronidase ([1]; NAF 50 μl, without CB): 2.7 ± 1.3%
Percent release of Vit. B12-binding protein [1, 6]: 26.8 ± 4.9%
Percent release of lactate dehydrogenase [1, 6]: 7.3 ± 2.1%
Percent release of β-glucuronidase [1, 6]: 8.5 ± 1.7%
Percent release of Vit. B12-binding protein ([1]; NAF 100 μl, without CB): 13.9 ± 2.1%
Percent release of lactate dehydrogenase ([1]; NAF 100 μl, without CB): 6.8 ± 2.2%
Percent release of β-glucuronidase ([1]; NAF 100 μl, without CB): 3.0 ± 1.3%
time between stimulus addition and onset of H2O2 production [2]: about 2 sec
molar potency relative to C5a and LTB ([3]; in vivo, rabbit skin): comparable
neutrophil accumulation in skin sites [3, 7]: dose-dependent increase
plasma leakage into skin sites [3, 7]: dose-dependent increase
Cytochrome c reduction, Maximum rate ([4]; NAF 5 μl): 0.81 nmol/min
Cytochrome c reduction, Total in 3 min ([4]; NAF 5 μl): 0.89 nmol
Cytochrome c reduction, Maximum rate ([4]; NAF 10 μl): 1.45 ± 0.63 nmol/min
Cytochrome c reduction, Total in 3 min ([4]; NAF 10 μl): 1.45 ± 0.50 nmol
Cytochrome c reduction, Maximum rate ([4]; NAF 20 μl): 2.32 ± 0.56 nmol/min
Cytochrome c reduction, Total in 3 min ([4]; NAF 20 μl): 2.16 ± 0.39 nmol
Cytochrome c reduction, Maximum rate ([4]; NAF 30 μl): 2.51 ± 0.50 nmol/min
Cytochrome c reduction, Total in 3 min ([4]; NAF 30 μl): 2.30 ± 0.55 nmol
Cytochrome c reduction, Maximum rate ([4]; NAF 50 μl): 3.51 ± 0.69 nmol/min
Cytochrome c reduction, Total in 3 min ([4]; NAF 50 μl): 3.10 ± 0.55 nmol
Cytochrome c reduction, Maximum rate ([4]; NAF 100 μl): 3.69 nmol/min
Cytochrome c reduction, Total in 3 min ([4]; NAF 100 μl): 3.39 nmol
